Measurements: patent publication US20200113950A1, “Human microbiota derived N-acyl amides for the treatment of human disease” (The Rockefeller University, priority 2017, published 2020)
“Also recorded” adds a separate entry of the source. Blank lines part the entries; values can stand above or below the molecule they belong to.

Legend:
[1] = tested on: GLUTag cells; experiment: GLP-1 release from GLUTag cells; assay type: cell-based, Murine; details: equimolar concentrations, 2 hours
Text: (§1) GPR119 is the most extensively studied of the GPCRs activated by bacterial N-acyl amides (FIG. 4). Mechanisms that link endogenous GPR119 agonists (OEA, 2-OG) to changes in host phenotype are well defined as a result of the exploration of GPR119 as a therapeutic target for the treatment of diabetes and obesity. In fact, synthetic small molecule GPR119 agonists are in clinical trials as treatment for both diseases (Ritter et al., 2016, J Med Chem 59:3579-92; Nunez et al., 2014, PLoS One 9:e92494; Ha et al., 2014, Arch Pharm Res 37:671-8; Katz et al., 2012, Diabetes Obes Metab 14:709-16). GPR119 agonists are thought to affect diverse metabolic functions, primarily glucose homeostasis but also gastric emptying and appetite, in vivo through GPR119-dependent hormone release from enteroendocrine cells (GLP-1, GIP, PYY) and pancreatic β-cells (insulin) (Flock et al., 2011, Endorinol 152:374-83; Overton et al., 2006, Cell Metab 3:167-75; Chu et al., 2007, Endocrinol 148:2601-9; Chu et al., 2008, Endocrinol 149:2038-47; Lauffer et al., 2009, Diabetes 58:1058-66; Serrano et al., 2011, Neuropharmacol 60:593-601). Murine enteroendocrine GLUTag cells have been used as a model system for measuring the ability of potential GPR119 agonists to induce GLP-1 release. […] To provide an orthogonal measurement of GPR119 activation by N-acyl serinols, HEK293 cells were stably transfected with a GPR119 expression construct.
Oleoyl ethanolamide and 2-oleoyl glycerol were purchased from Cayman Chemical Company and resuspended in DMSO to a concentration of 10 mM. N-oleoyl serinol was isolated and purified in the same manner as N-palmitoyl serinol described above and confirmed by ^1H NMR and HRMS. N-oleoyl serinol was resuspended at 10 mM concentration in DMSO. GLUTag cells were obtained from the Mangelsdorf Lab (University of Texas Southwestern) with permission from Daniel Drucker (Mount Sinai Hospital Toronto). […] Media was then collected, centrifuged at 500×g (4° C.) for 5 minutes and cell free supernatant was analyzed for GLP-1 level using the Active GLP-1 V2 kit (Mesoscale Discovery). […]

[2] = target: T1, sphingosine-1-phosphate receptor 4 (S1PR4) (Homo sapiens, UniProt O95977); experiment: β-arrestin cell-based GPCR assay (DiscoveRx), agonist mode, S1PR4; details: for agonist activity at / interaction with S1PR4: GPCR screen
T1 sequence (O95977 1-384): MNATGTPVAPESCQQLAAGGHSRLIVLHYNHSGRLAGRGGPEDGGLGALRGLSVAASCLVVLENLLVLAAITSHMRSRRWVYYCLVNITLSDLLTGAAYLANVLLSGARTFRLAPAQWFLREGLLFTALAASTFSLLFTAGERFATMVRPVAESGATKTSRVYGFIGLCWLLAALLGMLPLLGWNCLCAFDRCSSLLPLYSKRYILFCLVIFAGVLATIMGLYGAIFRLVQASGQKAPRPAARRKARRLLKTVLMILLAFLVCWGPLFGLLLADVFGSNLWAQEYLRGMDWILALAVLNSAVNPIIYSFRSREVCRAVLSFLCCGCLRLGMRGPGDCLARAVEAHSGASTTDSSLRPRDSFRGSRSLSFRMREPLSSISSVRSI
Procedure: The major N-acyl amide analog isolated from each family was assayed for agonist and antagonist activity against a panel of 240 human GPCRs (FIG. 3 and FIG. 8).
(§2) Using β-arrestin cell-based assays at 10 uM ligand concentration, agonist and antagonist activity was assessed by DiscoveRx against 168 GPCRs with known ligands as well as 72 orphan GPCRs. […] Synthetic N-acyl amides were assayed in the same fashion.

[3] = target: S1PR2 (Homo sapiens, UniProt O95136); experiment: β-arrestin GPCR screen, agonist mode, S1PR2; assay type: cell-based
Procedure: as §2

[4] = target: S1PR1 (Homo sapiens, UniProt P21453); experiment: β-arrestin GPCR screen, agonist mode, S1PR1; assay type: cell-based
Procedure: as §2

[5] = target: S1PR3 (Homo sapiens, UniProt Q99500); experiment: β-arrestin GPCR screen, agonist mode, S1PR3; assay type: cell-based
Procedure: as §2

[6] = target: T2, G2A (Homo sapiens, UniProt Q9UNW8); experiment: β-arrestin cell-based GPCR assay (DiscoveRx), agonist mode, orphan receptor G2A; details: for activation of G2A: GPCR screen
T2 sequence (Q9UNW8 1-380): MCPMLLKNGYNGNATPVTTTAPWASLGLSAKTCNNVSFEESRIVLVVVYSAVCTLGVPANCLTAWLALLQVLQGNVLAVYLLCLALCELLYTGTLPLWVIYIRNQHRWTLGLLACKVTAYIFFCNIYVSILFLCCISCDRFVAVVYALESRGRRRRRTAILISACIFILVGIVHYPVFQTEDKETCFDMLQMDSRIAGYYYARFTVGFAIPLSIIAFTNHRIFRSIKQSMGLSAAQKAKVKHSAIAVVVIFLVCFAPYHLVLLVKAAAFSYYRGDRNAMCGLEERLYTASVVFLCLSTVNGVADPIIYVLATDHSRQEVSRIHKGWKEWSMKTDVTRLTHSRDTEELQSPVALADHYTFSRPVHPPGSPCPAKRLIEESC
Procedure: (§3) The major N-acyl amide analog isolated from each family was assayed for agonist and antagonist activity against a panel of 240 human GPCRs (FIG. 3 and FIG. 8). […] The maximal activation of GPR119 and S1PR4 by the bacterial N-acyl amides was similar to the endogenous ligand (GPR119 100%, S1PR4 80%). Interactions between the bacterial N-acyl amides and GPCRs were also specific (FIG. 3A and FIG. 3B).
(§4) For each of the 6 N-acyl amide families (1-6) the analogue produced at the highest level in the heterologous expression experiments was assayed for GPCR activity. In the case of family 4 the major lysine analogue (N-3-hydroxyoleoyl lysine) was screened. Using β-arrestin cell-based assays at 10 uM ligand concentration, agonist and antagonist activity was assessed by DiscoveRx against 168 GPCRs with known ligands as well as 72 orphan GPCRs. […] Synthetic N-acyl amides were assayed in the same fashion.

[7] = target: PTGER4 (Homo sapiens, UniProt P35408); experiment: β-arrestin cell-based GPCR assay (DiscoveRx), antagonist mode, PTGER4
Procedure: as §3, §4

[8] = target: PTGIR (Homo sapiens, UniProt P43119); experiment: β-arrestin cell-based GPCR assay (DiscoveRx), antagonist mode, PTGIR
Procedure: as §3, §4

[9] = target: T3, GPR119 (Homo sapiens, UniProt Q8TDV5); experiment: cAMP secondary assay in ACTOne HEK293 cells transfected with GPR119; assay type: cell-based; design: expressed in transfected cells; host or cells: ACTOne HEK293 cells; details: for cellular cAMP concentration: HEK293 cells stably transfected with GPR119 vs native cells
T3 sequence (Q8TDV5 1-335): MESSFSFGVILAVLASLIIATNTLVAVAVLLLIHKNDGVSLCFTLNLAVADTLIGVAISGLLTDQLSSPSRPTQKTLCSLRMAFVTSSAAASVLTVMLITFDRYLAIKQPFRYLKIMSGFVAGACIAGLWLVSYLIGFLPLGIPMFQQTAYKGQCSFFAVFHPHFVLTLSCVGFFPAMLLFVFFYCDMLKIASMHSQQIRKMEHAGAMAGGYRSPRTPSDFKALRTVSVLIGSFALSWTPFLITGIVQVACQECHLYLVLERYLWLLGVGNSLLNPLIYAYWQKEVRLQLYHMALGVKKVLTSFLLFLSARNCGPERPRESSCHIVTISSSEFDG
Procedure: FIG. 10 depicts a secondary assay of GPR119. ACTOne HEK293 cells (control) and ACTOne HEK293 cells transfected with GPR119 were exposed to equimolar concentrations of the endogenous GPR119 ligand oleoylethanolamide or the bacterial ligand N-oleoyl serinol. Relative fluorescent intensity was recorded for each ligand concentration compared to background signal. All data points were performed in quadruplicate and error bars represent SD around the mean. […] The DCEA [5-(N-Ethylcarboxamido)adenosine] control is presented to confirm cAMP response of the parental cell line.
as §1

[10] = target: T3, GPR119; experiment: β-arrestin cell-based GPCR assay (DiscoveRx), agonist mode, GPR119; details: for interaction with GPR119: GPCR screen and dose response, FIG. 8
Procedure: as §3, §4

[11] = mice; cited from earlier work

Chain of PTGER4 (P35408 whole entry): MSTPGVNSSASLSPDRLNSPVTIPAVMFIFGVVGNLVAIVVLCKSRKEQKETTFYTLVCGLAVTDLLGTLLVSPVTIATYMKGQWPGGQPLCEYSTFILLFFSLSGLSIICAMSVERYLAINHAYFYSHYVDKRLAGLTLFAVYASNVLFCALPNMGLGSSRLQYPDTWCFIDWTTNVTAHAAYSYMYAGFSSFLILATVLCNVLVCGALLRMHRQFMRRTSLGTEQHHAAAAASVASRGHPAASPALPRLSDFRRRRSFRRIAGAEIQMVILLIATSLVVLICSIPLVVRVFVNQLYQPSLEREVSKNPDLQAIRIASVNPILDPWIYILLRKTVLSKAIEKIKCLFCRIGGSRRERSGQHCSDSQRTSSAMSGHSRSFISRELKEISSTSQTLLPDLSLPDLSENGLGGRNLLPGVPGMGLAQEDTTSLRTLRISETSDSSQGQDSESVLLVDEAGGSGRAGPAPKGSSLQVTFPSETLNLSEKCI
Chain of S1PR2 (O95136 whole entry): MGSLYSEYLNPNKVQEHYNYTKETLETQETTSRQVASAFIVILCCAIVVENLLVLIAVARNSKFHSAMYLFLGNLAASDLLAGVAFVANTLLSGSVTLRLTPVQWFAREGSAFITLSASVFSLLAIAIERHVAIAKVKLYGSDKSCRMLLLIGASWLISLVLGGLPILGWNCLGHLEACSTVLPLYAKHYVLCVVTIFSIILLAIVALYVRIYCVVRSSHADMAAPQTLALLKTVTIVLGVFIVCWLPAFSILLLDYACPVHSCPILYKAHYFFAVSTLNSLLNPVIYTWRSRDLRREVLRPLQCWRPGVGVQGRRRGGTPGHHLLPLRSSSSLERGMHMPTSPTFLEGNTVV
Chain of S1PR3 (Q99500 whole entry): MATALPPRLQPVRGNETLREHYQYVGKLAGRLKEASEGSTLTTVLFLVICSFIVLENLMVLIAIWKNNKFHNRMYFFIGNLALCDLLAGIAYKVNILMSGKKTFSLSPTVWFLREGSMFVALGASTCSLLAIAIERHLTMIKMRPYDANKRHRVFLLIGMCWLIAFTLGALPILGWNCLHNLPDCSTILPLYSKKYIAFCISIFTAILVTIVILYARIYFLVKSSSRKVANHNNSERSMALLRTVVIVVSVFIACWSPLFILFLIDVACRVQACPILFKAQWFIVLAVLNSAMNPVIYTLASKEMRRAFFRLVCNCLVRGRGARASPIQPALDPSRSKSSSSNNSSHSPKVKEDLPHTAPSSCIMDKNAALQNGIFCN
Chain of S1PR1 (P21453 whole entry): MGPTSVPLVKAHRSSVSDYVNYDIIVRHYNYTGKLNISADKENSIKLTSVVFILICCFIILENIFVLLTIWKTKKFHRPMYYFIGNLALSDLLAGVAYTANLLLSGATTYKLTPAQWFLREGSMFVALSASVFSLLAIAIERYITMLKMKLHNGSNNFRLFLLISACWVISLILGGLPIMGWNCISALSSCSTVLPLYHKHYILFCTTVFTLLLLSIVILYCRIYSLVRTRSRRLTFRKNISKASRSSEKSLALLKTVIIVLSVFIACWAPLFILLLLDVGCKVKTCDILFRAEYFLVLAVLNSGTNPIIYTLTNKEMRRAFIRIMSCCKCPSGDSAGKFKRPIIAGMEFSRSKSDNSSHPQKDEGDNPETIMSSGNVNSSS
Chain of PTGIR (P43119 whole entry): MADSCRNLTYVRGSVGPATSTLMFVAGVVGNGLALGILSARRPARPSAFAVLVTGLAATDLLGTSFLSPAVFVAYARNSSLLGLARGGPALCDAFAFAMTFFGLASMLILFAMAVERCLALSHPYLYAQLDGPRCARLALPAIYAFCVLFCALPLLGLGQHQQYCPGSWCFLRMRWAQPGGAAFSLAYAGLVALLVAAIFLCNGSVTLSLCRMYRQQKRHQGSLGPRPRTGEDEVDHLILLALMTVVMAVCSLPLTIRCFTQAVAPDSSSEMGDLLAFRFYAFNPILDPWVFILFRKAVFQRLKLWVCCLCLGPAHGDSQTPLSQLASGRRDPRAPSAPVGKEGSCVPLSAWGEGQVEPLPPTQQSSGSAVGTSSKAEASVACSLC

- activation of G2A [6]: activate G2A
Structure (SMILES): CCCCCCCCCCCCCC(O)CC(=O)NCC(=O)O (stereo not shown) [N-3-hydroxypalmitoyl glycine]

- antagonism of PTGER4 ([7]; antagonist screen): antagonized
- IC50 ([7]; in the presence of endogenous ligand, read-out: IC50, antagonist activity against PTGER4): 43 µM
- antagonism of PTGIR ([8]; antagonist screen): specifically antagonized
- IC50 ([8]; in the presence of endogenous ligand, read-out: IC50, antagonist activity against PTGIR): 15 µM
Structure (SMILES): CCCCCCCCCCCC(O)CC(=O)OC(CCCCCCC)CC(=O)N[C@@H](CCC(N)=O)C(=O)O (stereo partly shown) [N-acyloxyacyl glutamine, 3-[(3-OH-myristoyl)oxy]decanoyl glutamine]

- EC50 ([6]; β-arrestin assay, dose response, read-out: EC50, activation of G2A): 3 µM
Structure (SMILES): CCCCCCCCCCCCCC(=O)N[C@@H](C)C(=O)O [N-myristoyl alanine]

- activation of G2A [6]: activates G2A
Structure (SMILES): CCCCCCCCCCCCCCCC(=O)NCC(=O)O [N-palmitoyl glycine]

The remaining lines, values behind:

Structure (SMILES): CCCCCCCC/C=C\CCCCCCCC(=O)OC(CO)CO [Compound 2-OG, 2-oleoyl glycerol]
- GLP-1 secretion [1]: induced GLP-1 secretion to the same magnitude

Structure (SMILES): CCCCCCCCCCCCC/C=C/[C@@H](O)[C@@H](N)COP(=O)(O)O [Compound S1P, sphingosine-1-phosphate, reference compound]
- agonist activity at / interaction with S1PR4 [2]: activates
- EC50 ([2]; β-arrestin assay, dose response in duplicate, read-out: EC50, activation of S1PR4): 0.09 µM
- activation of S1PR2 [3]: activates
- activation of S1PR1 [4]: activates
- activation of S1PR3 [5]: activates

Structure (SMILES): CCCCCCCCCCCCCC(O)CC(=O)N[C@@H](CCCCN)C(=O)O (stereo partly shown) [N-3-hydroxypalmitoyl lysine]
- agonist activity at / interaction with S1PR4 [2]: specific agonist of S1PR4; also recorded: interacts with S1PR4

Structure (SMILES): CCCCCCCCCCCCCC(O)CC(=O)NC(CCCN)C(=O)O (stereo not shown) [N-3-hydroxypalmitoyl ornithine, N-3-OH-palmitoyl ornithine]
- agonist activity at / interaction with S1PR4 [2]: specific agonist of S1PR4; also recorded: interacts with S1PR4
- Emax ([2]; relative to endogenous ligand, read-out: maximal activation of S1PR4 compared with the endogenous ligand): 80%
- activation of S1PR2 [3]: did not activate
- activation of S1PR1 [4]: did not activate
- activation of S1PR3 [5]: did not activate

Structure (SMILES): CCCCCCCC/C=C\CCCCCCCC(=O)NC(CO)CO [N-oleoyl serinol]
- cellular cAMP concentration [9]: increased cellular cAMP concentrations in a GPR119 dependent fashion
- GLP-1 secretion [1]: induced GLP-1 secretion to the same magnitude
- interaction with GPR119 [10]: interacts with GPR119
- maximum GPR119 activation compared with OEA ([10]; β-arrestin assay, FIG. 5A): ~2 fold

Structure (SMILES): CCCCCCCCCCCCCCCC(=O)N[C@@H](C)C(=O)O [N-palmitoyl alanine]
- activation of G2A [6]: activate G2A

Structure (SMILES): CCCCCCCCCCCCCCCC(=O)NC(CO)CO [N-palmitoyl serinol]
- interaction with GPR119 [10]: interacts with GPR119
- Emax ([10]; relative to endogenous ligand, read-out: maximal activation of GPR119 compared with the endogenous ligand): 100%

Structure (SMILES): CCCCCCCC/C=C\CCCCCCCC(=O)NCCO [OEA, oleoylethanolamide]
- EC50 ([9]; HEK293 cells expressing GPR119, quadruplicate, read-out: EC50, cAMP response): 5.1 µM
- cellular cAMP concentration [9]: increased cellular cAMP concentrations in a GPR119 dependent fashion
- GLP-1 secretion [1]: induced GLP-1 secretion to the same magnitude
- EC50 ([10]; β-arrestin assay, dose response in duplicate, read-out: EC50, activation of GPR119): 7 µM
- blood glucose in OGTT after intravenous delivery [11]: fails to lower blood glucose
